Columns and labels:
[1] = target: Aldo-keto reductase family 1 member B1 (Homo sapiens, UniProt P15121); assay: In vitro inhibitroy concentration against Aldose reductase incubated at 24 degree C for 15 minutes in pH 7.0
Rattus norvegicus [2] = assay: Inhibition of fructose accumulation in diabetic rat after oral gavage administration incubated at RT for 60 minutes in pH 4.5 by acute test dosed at 10 mg/kg; type: functional; conditions: 1 h
Rattus norvegicus [3] = assay: Inhibition of fructose accumulation in diabetic rat after oral gavage administration incubated at RT for 60 minutes in pH 4.5 by acute test dosed at 20 mg/kg; type: functional; conditions: 1 h
Rattus norvegicus [4] = assay: Inhibition of fructose accumulation in diabetic rat after oral gavage administration, pH 4.5 by chronic test dosed at 10 mg/kg; type: functional
Rattus norvegicus [5] = assay: Inhibition of fructose accumulation in diabetic rat after oral gavage administration, pH 4.5 by chronic test dosed at 20 mg/kg; type: functional
Rattus norvegicus [6] = assay: Inhibition of sorbitol accumulation in diabetic rat by acute test dosed at 10 mg/kg; type: functional
Rattus norvegicus [7] = assay: Inhibition of sorbitol accumulation in diabetic rat by acute test dosed at 20 mg/kg; type: functional
Rattus norvegicus [8] = assay: Inhibition of sorbitol accumulation in diabetic rat by chronic test dosed at 20 mg/kg; type: functional
Rattus norvegicus [9] = assay: Inhibition of sorbitol accumulation in diabetic rat by chronic test dosed at 10 mg/kg; type: functional
Rattus norvegicus [10] = assay: Inhibition of sorbitol accumulation in diabetic rat by acute test dosed at 30 mg/kg; type: functional
Rattus norvegicus [11] = assay: Inhibition of sorbitol accumulation in diabetic rat by chronic test does at 20 mg/kg; type: functional
Rattus norvegicus [12] = assay: Inhibition of fructose accumulation in diabetic rat after oral gavage administration incubated at RT for 60 minutes in pH 4.5 by acute test dosed at 5 mg/kg; type: functional; conditions: 1 h
Rattus norvegicus [13] = assay: Inhibition of fructose accumulation in diabetic rat after oral gavage administration, pH 4.5 by chronic test dosed at 5 mg/kg; type: functional
Rattus norvegicus [14] = assay: Inhibition of sorbitol accumulation in diabetic rat by acute test dosed at 5 mg/kg; type: functional
Rattus norvegicus [15] = assay: Inhibition of sorbitol accumulation in diabetic rat by chronic test dosed at 5 mg/kg; type: functional
Rattus norvegicus [16] = assay: Inhibition of fructose accumulation in diabetic rat after oral gavage administration incubated at RT for 60 minutes in pH 4.5 by chronic test 10 mg/kg; conditions: 1 h
Rattus norvegicus [17] = assay: Inhibition of fructose accumulation in diabetic rat after oral gavage administration incubated at RT for 60 minutes in pH 4.5 by chronic test 30 mg/kg; conditions: 1 h

## O=c1ccc(S(=O)(=O)c2cccc3ccccc23)n[nH]1
[1]
  IC50: 150 nM
Rattus norvegicus [2]
  inhibition in vivo at 10 mg/kg: 49%
Rattus norvegicus [3]
  inhibition in vivo at 20 mg/kg: 55%
Rattus norvegicus [4]
  inhibition in vivo at 10 mg/kg: 31%
Rattus norvegicus [5]
  inhibition in vivo at 20 mg/kg: 43%
Rattus norvegicus [6]
  inhibition in vivo at 10 mg/kg: 88%
Rattus norvegicus [7]
  inhibition in vivo at 20 mg/kg: 95%
Rattus norvegicus [8]
  inhibition in vivo at 20 mg/kg: 70%
Rattus norvegicus [9]
  inhibition in vivo at 10 mg/kg: 60%

## O=c1ccc(S(=O)(=O)c2cccc(C(F)(F)F)c2)n[nH]1
[1]
  IC50: 175 nM
Rattus norvegicus [3]
  inhibition in vivo at 20 mg/kg: 17%
Rattus norvegicus [7]
  inhibition in vivo at 20 mg/kg: 45%

## O=S(=O)(Cc1ccccc1C(F)(F)F)c1ccc(O)nn1
[1]
  IC50: 500 nM

## O=c1ccc(S(=O)(=O)Cc2ccc(Br)cc2F)n[nH]1
[1]
  IC50: 667 nM

## O=c1ccc(S(=O)(=O)c2cc3cccc(Cl)c3[nH]2)n[nH]1
[1]
  IC50: 450 nM
Rattus norvegicus [3]
  inhibition in vivo at 20 mg/kg: 44%
Rattus norvegicus [7]
  inhibition in vivo at 20 mg/kg: 40%

## O=c1ccc(S(=O)(=O)c2c(Cl)cccc2Cl)n[nH]1
[1]
  IC50: 50 nM
Rattus norvegicus [10]
  inhibition in vivo at 30 mg/kg: 81%
Rattus norvegicus [11]
  inhibition in vivo at 20 mg/kg: 75%

## O=c1ccc(S(=O)(=O)Cc2cccc(Cl)c2Cl)n[nH]1
[1]
  IC50: 35 nM
Rattus norvegicus [3]
  inhibition in vivo at 20 mg/kg: 48%
Rattus norvegicus [7]
  inhibition in vivo at 20 mg/kg: 65%

## O=S(=O)(Cc1cccc(F)c1F)c1ccc(O)nn1
[1]
  IC50: 257 nM
Rattus norvegicus [3]
  inhibition in vivo at 20 mg/kg: 51%
Rattus norvegicus [7]
  inhibition in vivo at 20 mg/kg: 82%

## Cc1ccc2sc(S(=O)(=O)c3ccc(O)nn3)cc2c1
[1]
  IC50: 160 nM
Rattus norvegicus [3]
  inhibition in vivo at 20 mg/kg: 7%

## O=c1ccc(S(=O)(=O)c2oc3ccccc3c2-c2ccccc2)n[nH]1
[1]
  IC50: 23 nM

## O=S(=O)(c1cccc(Cl)c1)c1ccc(O)nn1
[1]
  IC50: 240 nM

## O=S(=O)(c1ccc(Cl)c(Cl)c1)c1ccc(O)nn1
Rattus norvegicus [2]
  inhibition in vivo at 10 mg/kg: 60%
Rattus norvegicus [3]
  inhibition in vivo at 20 mg/kg: 85%
Rattus norvegicus [6]
  inhibition in vivo at 10 mg/kg: 84%
Rattus norvegicus [7]
  inhibition in vivo at 20 mg/kg: 98%

## O=S(=O)(c1cc(Cl)cc(Cl)c1)c1ccc(O)nn1
Rattus norvegicus [12]
  inhibition in vivo at 5 mg/kg: 32%
Rattus norvegicus [3]
  inhibition in vivo at 20 mg/kg: 49%
Rattus norvegicus [13]
  inhibition in vivo at 5 mg/kg: 30%
Rattus norvegicus [5]
  inhibition in vivo at 20 mg/kg: 38%
Rattus norvegicus [14]
  inhibition in vivo at 5 mg/kg: 68%
Rattus norvegicus [7]
  inhibition in vivo at 20 mg/kg: 91%
Rattus norvegicus [15]
  inhibition in vivo at 5 mg/kg: 63%
Rattus norvegicus [8]
  inhibition in vivo at 20 mg/kg: 73%

## O=c1ccc(S(=O)(=O)c2cccc(F)c2F)n[nH]1
[1]
  IC50: 390 nM
Rattus norvegicus [16]
  inhibition in vivo at 10 mg/kg: 50%
Rattus norvegicus [17]
  inhibition in vivo at 30 mg/kg: 81%

## O=c1ccc(S(=O)(=O)c2ccccc2F)n[nH]1
[1]
  IC50: 540 nM
Rattus norvegicus [2]
  inhibition in vivo at 10 mg/kg: 34%
Rattus norvegicus [3]
  inhibition in vivo at 20 mg/kg: 56%
Rattus norvegicus [6]
  inhibition in vivo at 10 mg/kg: 79%
Rattus norvegicus [7]
  inhibition in vivo at 20 mg/kg: 91%

## Cc1ccc2oc(S(=O)(=O)c3ccc(O)nn3)c(C)c2c1
[1]
  IC50: 13 nM
Rattus norvegicus [2]
  inhibition in vivo at 10 mg/kg: 18%
Rattus norvegicus [6]
  inhibition in vivo at 10 mg/kg: 21%

## O=S(=O)(Cc1cccc(Cl)c1F)c1ccc(O)nn1
[1]
  IC50: 54 nM
Rattus norvegicus [3]
  inhibition in vivo at 20 mg/kg: 64%
Rattus norvegicus [7]
  inhibition in vivo at 20 mg/kg: 74%

## Cc1c(S(=O)(=O)c2ccc(O)nn2)oc2ccccc12
[1]
  IC50: 140 nM
Rattus norvegicus [2]
  inhibition in vivo at 10 mg/kg: 43%
Rattus norvegicus [3]
  inhibition in vivo at 20 mg/kg: 56%

## O=c1ccc(S(=O)(=O)c2cc3cc4c(cc3[nH]2)OCO4)n[nH]1
[1]
  IC50: 3800 nM

## O=c1ccc(S(=O)(=O)c2cccc(Cl)c2Cl)n[nH]1
[1]
  IC50: 55 nM
Rattus norvegicus [14]
  inhibition in vivo at 5 mg/kg: 55%
Rattus norvegicus [6]
  inhibition in vivo at 10 mg/kg: 77%
Rattus norvegicus [7]
  inhibition in vivo at 20 mg/kg: 98%
Rattus norvegicus [15]
  inhibition in vivo at 5 mg/kg: 81%
Rattus norvegicus [8]
  inhibition in vivo at 20 mg/kg: 89%

## O=S(=O)(Cc1ccccc1F)c1ccc(O)nn1
[1]
  IC50: 422 nM

## Cc1c(S(=O)(=O)c2ccc(O)nn2)oc2cc(Cl)ccc12
[1]
  IC50: 190 nM
Rattus norvegicus [2]
  inhibition in vivo at 10 mg/kg: 28%
Rattus norvegicus [6]
  inhibition in vivo at 10 mg/kg: 40%

## O=c1ccc(S(=O)(=O)c2cc3ccc(F)cc3[nH]2)n[nH]1
[1]
  IC50: 1400 nM

## O=c1ccc(S(=O)(=O)c2cc3cc(Cl)cc(Cl)c3o2)n[nH]1
[1]
  IC50: 87 nM
Rattus norvegicus [2]
  inhibition in vivo at 10 mg/kg: 39%
Rattus norvegicus [6]
  inhibition in vivo at 10 mg/kg: 32%

## O=c1ccc(S(=O)(=O)c2cc3cc(Cl)ccc3o2)n[nH]1
Rattus norvegicus [2]
  inhibition in vivo at 10 mg/kg: 39%

## O=c1ccc(S(=O)(=O)c2cc3cc(Cl)ccc3[nH]2)n[nH]1
[1]
  IC50: 1100 nM

## COc1ccc2oc(S(=O)(=O)c3ccc(=O)[nH]n3)cc2c1
[1]
  IC50: 230 nM
Rattus norvegicus [3]
  inhibition in vivo at 20 mg/kg: 34%
Rattus norvegicus [7]
  inhibition in vivo at 20 mg/kg: 49%
